In the supplement of paper PMC11451515:

Tested on: NOMO1
Experiment: cell viability relative to DMSO control; higher = less cytotoxic
Conditions: 48 h
Summary of the method: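 NOMO1 or SEM cells were plated at 500 cells/well and P12-Ichikawa cells at 1000 cells/well in 1536-well plates (5 μl), after each leukemia line had been adapted for at least four passages in each medium. Pin dosing delivered library compounds in DMSO at 11 threefold concentrations, 47 μM to 0.79 nM. CellTiter-Glo One luminescence was read after 48 h at 37°C. Viability is reported as a per-plate percentage of DMSO wells, with cell-free wells as background.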

[1] = HPLM + 10% dialyzed FBS, 0.000781 µM
[2] = HPLM + 10% dialyzed FBS, 0.00234 µM
[3] = HPLM + 10% dialyzed FBS, 0.00702 µM
[4] = HPLM + 10% dialyzed FBS, 0.0211 µM
[5] = HPLM + 10% dialyzed FBS, 0.0632 µM
[6] = HPLM + 10% dialyzed FBS, 0.19 µM
[7] = HPLM + 10% dialyzed FBS, 0.569 µM
[8] = HPLM + 10% dialyzed FBS, 1.71 µM
[9] = HPLM + 10% dialyzed FBS, 5.12 µM
[10] = HPLM + 10% dialyzed FBS, 15.4 µM
[11] = HPLM + 10% dialyzed FBS, 46.1 µM
[12] = RPMI 5 mM glucose + 10% FBS, 0.000781 µM
[13] = RPMI 5 mM glucose + 10% FBS, 0.00234 µM
[14] = RPMI 5 mM glucose + 10% FBS, 0.00702 µM
[15] = RPMI 5 mM glucose + 10% FBS, 0.0211 µM
[16] = RPMI 5 mM glucose + 10% FBS, 0.0632 µM
[17] = RPMI 5 mM glucose + 10% FBS, 0.19 µM
[18] = RPMI 5 mM glucose + 10% FBS, 0.569 µM
[19] = RPMI 5 mM glucose + 10% FBS, 1.71 µM
[20] = RPMI 5 mM glucose + 10% FBS, 5.12 µM
[21] = RPMI 5 mM glucose + 10% FBS, 15.4 µM
[22] = RPMI 5 mM glucose + 10% FBS, 46.1 µM
[23] = RPMI 5 mM glucose + 10% dialyzed FBS, 0.000781 µM
[24] = RPMI 5 mM glucose + 10% dialyzed FBS, 0.00234 µM
[25] = RPMI 5 mM glucose + 10% dialyzed FBS, 0.00702 µM
[26] = RPMI 5 mM glucose + 10% dialyzed FBS, 0.0211 µM
[27] = RPMI 5 mM glucose + 10% dialyzed FBS, 0.0632 µM
[28] = RPMI 5 mM glucose + 10% dialyzed FBS, 0.19 µM
[29] = RPMI 5 mM glucose + 10% dialyzed FBS, 0.569 µM
[30] = RPMI 5 mM glucose + 10% dialyzed FBS, 1.71 µM
[31] = RPMI 5 mM glucose + 10% dialyzed FBS, 5.12 µM
[32] = RPMI 5 mM glucose + 10% dialyzed FBS, 15.4 µM
[33] = RPMI 5 mM glucose + 10% dialyzed FBS, 46.1 µM

| Structure (SMILES) | cell viability [1] [%] | cell viability [2] [%] | cell viability [3] [%] | cell viability [4] [%] | cell viability [5] [%] | cell viability [6] [%] | cell viability [7] [%] | cell viability [8] [%] | cell viability [9] [%] | cell viability [10] [%] | cell viability [11] [%] | cell viability [12] [%] | cell viability [13] [%] | cell viability [14] [%] | cell viability [15] [%] | cell viability [16] [%] | cell viability [17] [%] | cell viability [18] [%] | cell viability [19] [%] | cell viability [20] [%] | cell viability [21] [%] | cell viability [22] [%] | cell viability [23] [%] | cell viability [24] [%] | cell viability [25] [%] | cell viability [26] [%] | cell viability [27] [%] | cell viability [28] [%] | cell viability [29] [%] | cell viability [30] [%] | cell viability [31] [%] | cell viability [32] [%] | cell viability [33] [%] |
| --- | --- | --- | --- | --- | --- | --- | --- | --- | --- | --- | --- | --- | --- | --- | --- | --- | --- | --- | --- | --- | --- | --- | --- | --- | --- | --- | --- | --- | --- | --- | --- | --- | --- |
| COc1cc(O)c2c(c1)C1OC1C[C@H](O)[C@H](O)C(=O)/C=C\C[C@H](C)OC2=O (stereo not given in full) | 92.7 | 118 | 104 | 111 | 126 | 120 | 122 | 125 | 108 | 31.3 | 12.5 | 109 | 99.9 | 99 | 120 | 105 | 96.7 | 121 | 103 | 97.8 | 50.4 | 13.7 | 93.5 | 98 | 105 | 109 | 110 | 114 | 113 | 100 | 94.7 | 50.7 | 17.5 |
| Oc1ccc(C2CCN(c3ccnc4ccccc34)CC2)cc1O | 101 | 107 | 115 | 101 | 123 | 124 | 113 | 123 | 94.1 | 82.9 | 55.6 | 108 | 109 | 97.5 | 101 | 107 | 123 | 108 | 120 | 98.9 | 95.7 | 48.6 | 91.9 | 99 | 97.9 | 83.8 | 104 | 96.4 | 103 | 109 | 111 | 98.1 | 70.9 |
| O=C(Nc1cccc(Nc2ncc(Br)c(NCCc3cnc[nH]3)n2)c1)N1CCCC1 | – | – | – | – | – | – | – | – | – | – | – | 113 | 117 | 122 | 112 | 112 | 110 | 68.7 | 71.1 | 62.8 | 12.4 | 1.13 | 103 | 106 | 107 | 107 | 113 | 95.2 | 92.2 | 59.6 | 65.2 | 37.1 | 0.0873 |
| CC1(C)OC2CC3C4CC(F)C/5=C/C(=O)/C=C\C5(C)C4C(O)CC3(C)[C@@]2(O1)C(=O)CO (stereo not given in full) | 105 | 111 | 118 | 119 | 126 | 117 | 110 | 124 | 123 | 124 | 119 | 113 | 108 | 102 | 115 | 121 | 127 | 116 | 112 | 117 | 119 | 119 | 124 | 113 | 125 | 122 | 123 | 150 | 123 | 138 | 135 | 119 | 132 |
| CC(=O)Nc1ccc([C@H](C)C(=O)Nc2ncc(C(C)C)s2)cc1 | 109 | 123 | 97.2 | 99 | 106 | 103 | 119 | 96.8 | 79.1 | 6.43 | 4.34 | 88.4 | 99.9 | 84.9 | 90.8 | 110 | 93.6 | 104 | 84.5 | 44.6 | 9.84 | 4.44 | 104 | 93.5 | 96.3 | 100 | 95.2 | 92 | 95.4 | 104 | 68.2 | 8.22 | 4.09 |
| NC(=O)c1ncn([C@@H]2O[C@H](CO)[C@@H](O)[C@H]2O)n1 | 116 | 134 | 110 | 117 | 112 | 103 | 88 | 69.2 | 55.4 | 56.8 | 29.6 | 104 | 129 | 115 | 108 | 113 | 110 | 102 | 85.4 | 76.7 | 74.5 | 36.7 | 124 | 110 | 116 | 115 | 114 | 104 | 89.4 | 69.3 | 58.2 | 68.2 | 48.9 |
| Cc1ncc(OC[C@@]2(c3cccc(F)c3)C[C@H]2C(=O)Nc2ccc(F)cn2)c(C)n1 | 108 | 106 | 122 | 120 | 125 | 129 | 117 | 105 | 120 | 117 | 108 | 105 | 93.8 | 125 | 92.7 | 105 | 113 | 107 | 92.2 | 102 | 101 | 116 | 102 | 107 | 105 | 106 | 119 | 110 | 97 | 101 | 112 | 110 | 116 |
